The nature of this assay: Agonist activity at RORgammat in mouse CD4+ T cells assessed as induction of Th17 cells differentiation by measuring increase in IL17 production measured after 4 days by intracellular staining based flow cytometry. In general terms: In flow cytometry, cells or beads pass a laser one at a time.

With `CCCN(Cc1ccc(NC(=O)Cc2ccc(S(C)(=O)=O)cc2)cc1Cl)CC1CCCCC1`, the EC50 (commonly the midpoint of the concentration-response curve) stood at 0.037 µM.

Source of the values: BindingDB's records for doi:10.1016/j.ejmech.2021.113704 (Fudan University, 2021).
